Assay results from PubChem BioAssay AID330 (DTP/NCI, 2004).
Several values for one entry are separate records, joined by “and”; a condition that tells them apart may be missing. Equal values may be shown once. Toxic doses and inconclusive results are not listed.

Test system: P388 leukemia ip, CD2F1 mice, survival T/C
Assay: NCI In Vivo Anticancer Drug Screen. Data for tumor model P388 Leukemia (intraperitoneal) in CD2F1 (CDF1) mice
Settings: endpoint: median survival time, higher = longer survival
Outline: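 Mice carrying the transplanted tumor received test compound or vehicle. Survival was recorded in each group, and the value is the treated-group measurement divided by that of the vehicle-treated control group.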

[1] = dose: 12.5 mg/kg/injection, schedule: Q01DX009 (ip), vehicle: saline with Tween-80
[2] = dose: 25.0 mg/kg/injection, schedule: Q01DX009 (ip), vehicle: saline with Tween-80
[3] = dose: 50.0 mg/kg/injection, schedule: Q01DX009 (ip), vehicle: saline with Tween-80
[4] = dose: 50.0 mg/kg/injection, schedule: Q01DX005 (ip), vehicle: Klucel (hydroxypropylcellulose) (HPC)
[5] = dose: 100.0 mg/kg/injection, schedule: Q01DX005 (ip), vehicle: Klucel (hydroxypropylcellulose) (HPC)
[6] = dose: 200.0 mg/kg/injection, schedule: Q01DX005 (ip), vehicle: Klucel (hydroxypropylcellulose) (HPC)
[7] = dose: 15.0 mg/kg/injection, schedule: Q01DX005 (ip), vehicle: saline with Tween-80
[8] = dose: 30.0 mg/kg/injection, schedule: Q01DX005 (ip), vehicle: saline with Tween-80
[9] = dose: 60.0 mg/kg/injection, schedule: Q01DX005 (ip), vehicle: saline with Tween-80
[10] = dose: 120.0 mg/kg/injection, schedule: Q01DX005 (ip), vehicle: saline with Tween-80
[11] = dose: 4.0 mg/kg/injection, schedule: Q01DX009 (ip), vehicle: saline
[12] = dose: 100.0 mg/kg/injection, schedule: Q01DX009 (ip), vehicle: saline with Tween-80
[13] = dose: 200.0 mg/kg/injection, schedule: Q01DX009 (ip), vehicle: saline with Tween-80
[14] = dose: 50.0 mg/kg/injection, schedule: Q01DX009 (ip), vehicle: Klucel (hydroxypropylcellulose) (HPC)
[15] = dose: 100.0 mg/kg/injection, schedule: Q01DX009 (ip), vehicle: Klucel (hydroxypropylcellulose) (HPC)
[16] = dose: 200.0 mg/kg/injection, schedule: Q01DX009 (ip), vehicle: Klucel (hydroxypropylcellulose) (HPC)
[17] = dose: 60.0 mg/kg/injection, schedule: Q01DX005 (ip), vehicle: Klucel (hydroxypropylcellulose) (HPC)
[18] = dose: 120.0 mg/kg/injection, schedule: Q01DX005 (ip), vehicle: Klucel (hydroxypropylcellulose) (HPC)
[19] = dose: 240.0 mg/kg/injection, schedule: Q01DX005 (ip), vehicle: Klucel (hydroxypropylcellulose) (HPC)
[20] = dose: 240.0 mg/kg/injection, schedule: Q01DX005 (ip), vehicle: saline with Tween-80

[CH3][Sn]1([CH3])[O]P(=O)(c2ccccc2)[O]1
T/C (dose: 6.25 mg/kg/injection, schedule: Q01DX009 (ip), vehicle: saline with Tween-80): 99 % of control
T/C (dose: 6.25 mg/kg/injection, schedule: Q01DX009 (ip), vehicle: saline): 110 % of control
T/C [1]: 96 % of control
T/C (dose: 12.5 mg/kg/injection, schedule: Q01DX009 (ip), vehicle: saline): 112 % of control
T/C [2]: 107 % of control
T/C (dose: 25.0 mg/kg/injection, schedule: Q01DX009 (ip), vehicle: saline): 119 % of control
T/C [3]: 105 % of control
T/C (dose: 50.0 mg/kg/injection, schedule: Q01DX009 (ip), vehicle: saline): 112 % of control and 120 % of control

Cc1ccc2nc3[nH]c(=O)[nH]c(=O)c3c(N)c2c1
T/C [4]: 101 % of control
T/C [5]: 104 % of control
T/C [6]: 102 % of control

COc1ccc(NC(=S)NN)cc1
T/C (dose: 37.5 mg/kg/injection, schedule: Q01DX009 (ip), vehicle: saline with Tween-80): 95 % of control
T/C (dose: 75.0 mg/kg/injection, schedule: Q01DX009 (ip), vehicle: saline with Tween-80): 90 % of control
T/C (dose: 100.0 mg/kg/injection, schedule: Q04DX003 (ip), vehicle: saline with Tween-80): 87 % of control

CSc1nc(NC2OC(CO)C(O)C(O)C2O)c(Cl)c(=O)n1C (configuration not stated)
T/C [7]: 94 % of control
T/C [8]: 95 % of control
T/C [9]: 91 % of control and 97 % of control
T/C [10]: 100 % of control

CCOP(OCC)SSCn1nc2ccc3ccccc3n2c1=O
T/C [7]: 98 % of control
T/C [8]: 97 % of control
T/C [9]: 103 % of control

C[C@@H]1CC[C@@]2(NC1)O[C@H]1C[C@H]3[C@@H]4CCC5=CC(=O)CC[C@]5(C)[C@H]4CC[C@]3(C)[C@H]1[C@@H]2C
T/C (dose: 15.0 mg/kg/injection, schedule: Q01DX009 (ip), vehicle: saline with Tween-80): 102 % of control
T/C (dose: 30.0 mg/kg/injection, schedule: Q01DX009 (ip), vehicle: saline with Tween-80): 100 % of control
T/C (dose: 60.0 mg/kg/injection, schedule: Q01DX009 (ip), vehicle: saline with Tween-80): 99 % of control
T/C (dose: 120.0 mg/kg/injection, schedule: Q01DX009 (ip), vehicle: saline with Tween-80): 93 % of control

COc1ccc2c(c1O)-c1cccc3c1[C@@H](C2)N(CCCl)CC3
T/C (dose: 1.0 mg/kg/injection, schedule: Q01DX009 (ip), vehicle: Klucel (hydroxypropylcellulose) (HPC)): 101 % of control and 105 % of control
T/C (dose: 2.0 mg/kg/injection, schedule: Q01DX009 (ip), vehicle: Klucel (hydroxypropylcellulose) (HPC)): 99 % of control and 101 % of control
T/C (dose: 4.0 mg/kg/injection, schedule: Q01DX009 (ip), vehicle: Klucel (hydroxypropylcellulose) (HPC)): 106 % of control and 113 % of control
T/C [11]: 151 % of control
T/C (dose: 6.25 mg/kg/injection, schedule: Q04DX003 (ip), vehicle: other): 104 % of control and 118 % of control
T/C (dose: 8.0 mg/kg/injection, schedule: Q01DX009 (ip), vehicle: Klucel (hydroxypropylcellulose) (HPC)): 106 % of control
T/C (dose: 8.0 mg/kg/injection, schedule: Q01DX009 (ip), vehicle: saline): 114 % of control and 120 % of control
T/C (dose: 12.5 mg/kg/injection, schedule: Q04DX003 (ip), vehicle: other): 90 % of control
T/C (dose: 25.0 mg/kg/injection, schedule: Q04DX003 (ip), vehicle: other): 116 % of control

COC1/C=C/OC2(C)Oc3c(C)c(O)c4c(O)c(c(/C=N/n5c(=O)[nH]c6ccccc6c5=O)c(O)c4c3C2=O)NC(=O)/C(C)=C\C=C\C(C)C(O)C(C)C(O)C(C)C(OC(C)=O)C1C (configuration not stated)
T/C [3]: 107 % of control
T/C [12]: 108 % of control
T/C [13]: 106 % of control

Cc1ccc2c(I)cc(I)c(O)c2n1
T/C [14]: 107 % of control
T/C [15]: 102 % of control
T/C [16]: 100 % of control

Cc1cccc(-c2cc3ccccc3c(Cl)n2)n1
T/C (dose: 100.0 mg/kg/injection, schedule: Q01DX001 (ip), vehicle: saline with Tween-80): 104 % of control
T/C (dose: 200.0 mg/kg/injection, schedule: Q01DX001 (ip), vehicle: saline with Tween-80): 100 % of control
T/C (dose: 400.0 mg/kg/injection, schedule: Q01DX001 (ip), vehicle: saline with Tween-80): 91 % of control

Nc1nc(N)c2nc(C(=O)c3ccccc3)c(-c3ccccc3)nc2n1
T/C [3]: 92 % of control
T/C [12]: 97 % of control
T/C [13]: 90 % of control

CN1C(=O)C=CC1=O
T/C (dose: 0.5 mg/kg/injection, schedule: Q01DX009 (ip), vehicle: saline): 96 % of control
T/C (dose: 1.0 mg/kg/injection, schedule: Q01DX009 (ip), vehicle: saline): 103 % of control
T/C (dose: 2.0 mg/kg/injection, schedule: Q01DX009 (ip), vehicle: saline): 100 % of control
T/C [11]: 101 % of control

O=c1oc2ccccc2c2c1SC(c1ccncc1)C2 (configuration not stated)
T/C [17]: 91 % of control
T/C [18]: 88 % of control
T/C [19]: 91 % of control

O=c1nc2oc(-c3ccccc3)cn2c(=O)n1-c1ncc(-c2ccccc2)o1
T/C [4]: 97 % of control
T/C [5]: 100 % of control
T/C [6]: 105 % of control

CC1CCC2C(C)(C)C3CC12CC1OC13C (configuration not stated)
T/C [9]: 100 % of control
T/C [10]: 91 % of control
T/C [20]: 96 % of control

CC1CCC2(OC2(C)C)C(=O)C1 (configuration not stated)
T/C (dose: 100.0 mg/kg/injection, schedule: Q04DX002 (ip), vehicle: saline): 103 % of control
T/C (dose: 200.0 mg/kg/injection, schedule: Q04DX002 (ip), vehicle: saline): 103 % of control
T/C (dose: 400.0 mg/kg/injection, schedule: Q04DX002 (ip), vehicle: saline): 104 % of control

N#CNC1=NC(c2ccccc2O)CC(=O)N1 (configuration not stated)
T/C (dose: 100.0 mg/kg/injection, schedule: Q04DX003 (ip), vehicle: suspension in saline): 98 % of control
T/C (dose: 200.0 mg/kg/injection, schedule: Q04DX003 (ip), vehicle: suspension in saline): 105 % of control
T/C (dose: 400.0 mg/kg/injection, schedule: Q04DX003 (ip), vehicle: suspension in saline): 100 % of control

O=C(N/N=C/c1ccccc1[O-])c1ccccc1O.O=C(N/N=C/c1ccccc1[O-])c1ccccc1O.[Fe+2]
T/C [17]: 103 % of control
T/C [18]: 108 % of control
T/C [19]: 94 % of control

CCCCCCCCCCCCCCCN1CCS(=O)(=O)CC1
T/C [14]: 98 % of control
T/C [15]: 94 % of control
T/C [16]: 94 % of control

C[C@]12CCC(=O)C=C1CC[C@@H]1[C@@H]2CC[C@@]2(C)[C@H]1CCCN2CCO
T/C (dose: 25.0 mg/kg/injection, schedule: Q01DX001 (ip), vehicle: Klucel (hydroxypropylcellulose) (HPC)): 99 % of control
T/C (dose: 50.0 mg/kg/injection, schedule: Q01DX001 (ip), vehicle: Klucel (hydroxypropylcellulose) (HPC)): 103 % of control
T/C (dose: 100.0 mg/kg/injection, schedule: Q01DX001 (ip), vehicle: Klucel (hydroxypropylcellulose) (HPC)): 99 % of control and 97 % of control

COc1cc2c(cc1O)C(CSC)Cc1cc3c(cc1N(C)CC2)OCO3 (configuration not stated)
T/C [1]: 100 % of control
T/C [2]: 100 % of control
T/C [3]: 102 % of control
T/C [12]: 88 % of control
T/C [13]: 95 % of control

CC1=CC2N(C=C1)C(c1ccc(Cl)cc1)=NON2c1cc(C)ccn1 (configuration not stated)
T/C (dose: 50.0 mg/kg/injection, schedule: Q01DX005 (ip), vehicle: saline with Tween-80): 92 % of control
T/C (dose: 100.0 mg/kg/injection, schedule: Q01DX005 (ip), vehicle: saline with Tween-80): 86 % of control and 94 % of control
T/C [10]: 87 % of control
T/C (dose: 200.0 mg/kg/injection, schedule: Q01DX005 (ip), vehicle: saline with Tween-80): 100 % of control
T/C [20]: 93 % of control

CCOc1c(N=Nc2ccccc2OC)c(C)nn1C(=S)SC
T/C (dose: 15.0 mg/kg/injection, schedule: Q01DX005 (ip), vehicle: Klucel + Tween-80): 92 % of control
T/C (dose: 30.0 mg/kg/injection, schedule: Q01DX005 (ip), vehicle: Klucel + Tween-80): 92 % of control
T/C (dose: 60.0 mg/kg/injection, schedule: Q01DX005 (ip), vehicle: Klucel + Tween-80): 90 % of control
